Experimental data from patent US4652642A, “Azidobenzazepines” (SmithKline Beckman Corporation, priority 1984, dated 1987).

Columns and labels:
α2 sites [1] = assay: protection against photolytic deactivation by concomitant adrenoceptor agents; type: binding; settings: concomitant with the 9-azido-3-methyl-6-chloro compound, ultraviolet light
α2 sites [2] = assay: photolytic inactivation of α2 binding on ultraviolet irradiation
[3] = target: T1, prejunctional alpha2 (α2-adrenoceptor) (Cavia porcellus, UniProt Q60474); assay: prejunctional alpha2-antagonist activity, isolated superfused guinea pig left atrium (clonidine concentration-response shift); type: cell-based; settings: clonidine as agonist, superfused with antagonist for thirty minutes, read-out: receptor dissociation constant of the antagonist (KB)
T1 construct: The left atrium is removed, dissected free of extraneous tissue and mounted in a 2 ml superfusion chamber; from tissue; host or cells: guinea pig (male) left atrium, sympathetic nerve endings
T1 sequence (Q60474 1-464): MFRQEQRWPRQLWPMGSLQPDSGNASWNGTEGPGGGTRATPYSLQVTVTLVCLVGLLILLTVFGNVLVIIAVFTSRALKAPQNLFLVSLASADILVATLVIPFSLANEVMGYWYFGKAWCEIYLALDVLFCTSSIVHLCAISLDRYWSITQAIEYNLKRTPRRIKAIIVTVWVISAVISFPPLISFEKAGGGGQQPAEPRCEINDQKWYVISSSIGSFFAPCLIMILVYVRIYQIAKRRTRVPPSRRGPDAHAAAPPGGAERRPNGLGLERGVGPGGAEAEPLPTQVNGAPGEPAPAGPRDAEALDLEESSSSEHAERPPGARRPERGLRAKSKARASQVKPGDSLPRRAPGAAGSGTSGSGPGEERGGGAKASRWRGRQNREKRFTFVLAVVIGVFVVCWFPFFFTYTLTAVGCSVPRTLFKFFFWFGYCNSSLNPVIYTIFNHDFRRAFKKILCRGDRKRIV
Procedure: Briefly, the heart is removed from a pentobarbital-anesthetized male guinea pig. The left atrium is removed, dissected free of extraneous tissue and mounted in a 2 ml superfusion chamber. The tissue is paced at 60 pulse/minute and the sympathetic nerves excited at 6 minute intervals by field stimulation. The response to nerve stimulation is measured as the difference in contractile force between the basal contraction and peak contraction following a nerve stimulation. A concentration-response curve for clonidine (a known alpha2 -agonist) is prepared by administering increasing concentrations of clonidine following each successive stimulation. The tissue is, then, superfused with the alpha2 -antagonist to be tested for thirty minutes and the clonidine concentration-effect curve is repeated in the presence of antagonist. The receptor dissociation constant of the antagonist (KB) is defined as the antagonist concentration required to shift the log concentration-response curve of the agonist to the right by a factor of 2.
Pharmacol. 309 217-224 (1979). The preferred species of this invention, i.e. the 9-azido-3-methyl-6-chloro compound, has a KB value of 158 nM in the atrium test.

α2 sites [4] = assay: competitive binding to α2 sites

Structure (SMILES): Nc1cc(Cl)c(NC2=NCCN2)c(Cl)c1 [p-aminoclonidine]
- effect of concomitant presence on photolytic deactivation (α2 sites [1]): complete protection

Structure (SMILES): COc1cc2nc(N3CCN(C(=O)c4ccco4)CC3)nc(N)c2cc1OC [Prazosin]
- effect of concomitant presence on photolytic deactivation (α2 sites [1]): no effect

Structure (SMILES): Cc1ccc(N(CC2=NCCN2)c2cccc(O)c2)cc1 [phentolamine]
- effect of concomitant presence on photolytic deactivation (α2 sites [1]): partially blocks the photolytic deactivation

Structure (SMILES): CN1CCc2c(Cl)ccc(N=[N+]=[N-])c2CC1 [9-azido-3-methyl-6-chloro compound, 9-azido-6-chloro-3-methyl-2,3,4,5-tetrahydro-1H-3-benzazepine]
- binding effect when irradiated with ultraviolet light (α2 sites [2]): the binding effect is made irreversible
- dependence of photolytic inactivation (α2 sites [2]; irradiated with ultraviolet light): concentration and time dependent
- Kb [3]: 158 nM
- mode of binding to α2 sites (α2 sites [4]; without irradiation): bind competitively
- Ki (α2 sites [4]; α2 sites): 42 nM
